Assay results from US6365734B1, “Cucurbituril derivatives, their preparation methods and uses” (Pohang University of Science and Technology Foundation, priority 1999, dated 2002).
Values belong to the molecule of their own block, whether it stands above or below them.

Experiments:
[1] = Ternary complex formation, amino acid sensing (NMR); type: binding; conditions: methylviologen, tyrosine and host, D2O, heated
Description: 5.0 mM of methylviologendichloride solution, and 5.0 mM of tyrosine solution were prepared using D2O solvent. 0.25 ml of each solution was mixed with 2.1 mg of cucurbit[8]uril. Next, the mixture was heated until the color changed into yellow.

[2] = Inclusion complex formation in water; type: binding; conditions: guest cyclam, heating then slow cooling
Description: 13.0 mg of cyclam tetrahydrochloride (1,4,8,11-tetraazacyclotetradecane tetrahydrochloride) and 10.0 mg of cucurbit[8]uril were dissolved in water.

[3] = Complex formation with anti-cancer drug, drug carrier test (NMR); type: binding; conditions: in water
Description: The following example is for investigating the function of the cucurbituril derivatives obtained in Synthesis Examples 1 through 10, as a drug carrier. In the following example, cisplatin, an anti-cancer drug, was used.
2.0 mg of Cis-dichloroethylenediamine platinum (II) and 2.0 mg of cucurbit[8]uril were dissolved in water.

[4] = Complex formation with herbicide (NMR); type: binding; conditions: methylviologen and host, D2O
Description: Methylviologendichloride (so-called paraquat), a herbicide, was used. 5.0 mM of mehylbiologendichloride solution was prepared with D2O solvent. Next, cucurbit[8]uril was added to the solution.

[5] = Ternary complex formation, amino acid sensing (NMR); type: binding; conditions: methylviologen, tryptophan and host, D2O, heated
Description: 5.0 mM of methylviologendichloride solution, and 5.0 mM of tryptophan solution were prepared using D2O solvent. 0.25 ml of each solution was mixed with 2.1 mg of cucurbit[8]uril. Next, the mixture was heated until the color changed into red.

[6] = Host-guest complex formation in water (NMR); type: binding; conditions: guest 2,6-Bis(4,5-dihydro-1H-imidazol-2-yl)naphthalene dihydrochloride
Description: 5.80 mg of 2,6-Bis(4,5-dihydro-1H-imidazol-2-yl)naphthalene dihydrochloride and 5.0 mg of cucurbit[8]uril were dissolved in water.
4.35 mg of 2,6-Bis(4,5-dihydro-1H-imidazol-2-yl)naphthalene dihydrochloride and 5.0 mg of cucurbit[7]uril were dissolved in water.

[7] = Inclusion complex formation in water; type: binding; conditions: guest cyclen, heating then slow cooling
Description: 120.0 mg of cyclen tetrahydrochloride ([…] tetrahydrochloride) and 100.0 mg of cucurbit[8]uril were dissolved in water.

[8] = Ternary complex formation, nucleic acid base sensing (NMR); type: binding; conditions: methylviologen, thymine and host, D2O, heated
Description: 5.0 mM of methylviologendichloride solution, and 5.0 mM of thymine solution were prepared using D2O solvent. 0.25 ml of each solution was mixed with 2.1 mg of cucurbit[8]uril. Next, the mixture was heated until the color changed into yellow.

[9] = Binding constant by microcalorimeter (VP-ITC); conditions: water/formic acid 1:1 by volume, 1.0 mM host
Description: Distilled water and formic acid were mixed in a ratio of 1:1: by volume. Next, 1.0 mM of cucurbit[5]uril derivative was prepared with the diluted formic acid. 20.0 mM of aqueous solution containing ammonium ions, and positive ions of alkaline metals, such as lithium, sodium and potassium, was prepared. Then, the binding constants of the cucurbit[5]uril derivative with these ions were measured using a microcalorimeter (VP-ITC, manufactured by MicroCal). As a result, the cucurbit[5]uril derivative has a binding constant of 5.4×10^3M^−1 with ammonium ions, 3.3×10^2M^−1 with positive lithium ions, 4.5×10^3M^−1 with positive sodium ions, and 2.6×10^4M^−1 with positive potassium ions. The cucurbit[5]uril derivative can selectively bind with alkali metal ions, as well as with ammonium ions. The result confirms that cucurbituril derivatives can be used as ion sensors.

[10] = Inclusion complex formation in water; type: binding; conditions: guest 1-aminoadamantane, addition of methanol
Description: 24.2 mg of 1-aminoadanmatane hydrochloride and 50.0 mg of cucurbi[7]uril were dissolved in water.

[11] = Organic dye removal from water, UV absorption of filtrate
Description: 30 mg of organic dye, Direct Red 5B (commercially available from Ciba-Geigy Co.) was dissolved in 150 ml of water to prepare an organic dye solution. To half the organic dye solution, 150 mg of cucurbit[7]uril was added and stirred for 30 minutes.
The precipitate was filtered, and UV absorption spectra were measured at λmax=510 nm on the filtrate and the remaining half of the organic dye solution which was not treated with the cucurbut[7]uril.
R=UV absorption intensity of the dye solution treated with cucurbit[7]uril ×100/UV absorption intensity of the dye solution before the treatment with cucurbit[7]uril.
The following dyes were used: Reactive Blue HE-G (produced by Kyung-In Co.), Direct Solophenyl Violet 4BL (produced by Ciba-Geigy Co.), Reactive Navy Blue HE-R 150 (produced by Kyung-In Co.), Disperse Yellow E-3 (produced by LG Co.), Disperse T/Q Blue S-GL (produced by LG Co.) and Orange TGL (produced by Ciba-Geigy Co.).

Molecule: O=C1N2CN3C(=O)N4CN5C(=O)N6CN7C(=O)N8CN9C(=O)N%10CN%11C(=O)N%12CN%13C(=O)N%14CN%15C(=O)N%16CN1C1C2N2CN%17C(=O)N(CN%18C(=O)N(CN%19C(=O)N(CN%20C(=O)N(CN%21C(=O)N(CN%22C(=O)N(CN%23C(=O)N(CN1C2=O)C%16C%15%23)C%14C%13%22)C%12C%11%21)C%10C9%20)C8C7%19)C6C5%18)C4C3%17 (stereo not shown) [cucurbit[8]uril]
- complex formation and stoichiometry [1]: quantitative formation of a 1:1:1 complex
- inclusion complex formation [2]: produced an inclusion complex
- complex formation and stoichiometry (platinum compound : host) [3]: quantitative formation of a 2:1 complex
- complex formation and stoichiometry [4]: quantitative formation of a 1:1 complex
- complex formation and stoichiometry [5]: quantitative formation of a 1:1:1 complex
- host-guest complex formation and stoichiometry [6]: quantitative formation of a 1:2 host-guest complex
- inclusion complex formation [7]: produced an inclusion complex
- complex formation and stoichiometry [8]: quantitative formation of a 1:1:1 complex

- binding constant with ammonium ions [9]: 5400 M⁻¹
- binding constant with positive lithium ions [9]: 330 M⁻¹
- binding constant with positive potassium ions [9]: 26000 M⁻¹
- binding constant with positive sodium ions [9]: 4500 M⁻¹
Molecule: O=C1N2CN3C(=O)N4CN5C(=O)N6CN7C(=O)N8CN9C(=O)N%10CN1C1C2N2CN%11C(=O)N(CN%12C(=O)N(CN%13C(=O)N(CN%14C(=O)N(CN1C2=O)C%10C9%14)C8C7%13)C6C5%12)C4C3%11 (stereo not shown) [cucurbit[5]uril]

Molecule: cucurbit[7]uril
- inclusion complex formation [10]: produced an inclusion complex
- R ([11]; Direct Red 5B, 510 nm, R = intensity after treatment ×100 / intensity before): 1.7%
- R ([11]; Direct Solophenyl Violet 4BL, 546 nm, R = intensity after ×100 / before): 1.3%
- R ([11]; Disperse T/Q Blue S-GL 200, 776 nm, R = intensity after ×100 / before): 0.8%
- R ([11]; Disperse Yellow E-3, 429 nm, R = intensity after ×100 / before): 3.0%
- R ([11]; Orange TGL, 419 nm, R = intensity after ×100 / before): 5.4%
- R ([11]; Reactive Blue HE-G, 626 nm, R = intensity after ×100 / before): 0.3%
- R ([11]; Reactive Blue HE-G, 662 nm, R = intensity after ×100 / before): 0.3%
- R ([11]; Reactive Navy Blue HE-R 150, 609 nm, R = intensity after ×100 / before): 0.6%
- host-guest complex formation and stoichiometry [6]: quantitative formation of a 1:1 host-guest complex
